Reference: ChEMBL document CHEMBL1909046, “DrugMatrix in vitro pharmacology data”

Experiments:
[1] = molecular target: T1, Cytochrome P450 2A6 (Homo sapiens, UniProt P11509); settings: bti-tn-5b1-4; also: in other assays of this panel Not Active means under 50% inhibition at 10 µM
T1 sequence (P11509 whole entry): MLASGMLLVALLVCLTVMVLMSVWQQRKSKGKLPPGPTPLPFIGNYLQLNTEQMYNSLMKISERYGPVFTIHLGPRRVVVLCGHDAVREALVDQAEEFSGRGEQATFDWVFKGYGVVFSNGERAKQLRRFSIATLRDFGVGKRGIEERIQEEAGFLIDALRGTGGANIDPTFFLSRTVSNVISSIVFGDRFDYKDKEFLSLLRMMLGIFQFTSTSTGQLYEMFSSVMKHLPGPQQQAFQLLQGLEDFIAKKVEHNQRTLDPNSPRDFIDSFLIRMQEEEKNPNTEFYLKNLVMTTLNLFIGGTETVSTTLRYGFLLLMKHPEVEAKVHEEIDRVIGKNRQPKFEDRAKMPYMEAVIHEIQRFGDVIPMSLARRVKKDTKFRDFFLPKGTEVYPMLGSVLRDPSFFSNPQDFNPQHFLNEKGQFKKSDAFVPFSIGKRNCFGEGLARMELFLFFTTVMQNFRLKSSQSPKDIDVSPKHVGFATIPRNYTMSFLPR

[2] = molecular target: T2, 5-hydroxytryptamine receptor 1A (Rattus norvegicus, UniProt P19327); type: cell membranes, CHO-K1, Membrane; settings: cho-k1; also: in other assays of this panel Not Active means under 50% inhibition at 10 µM
T2 sequence (P19327 whole entry): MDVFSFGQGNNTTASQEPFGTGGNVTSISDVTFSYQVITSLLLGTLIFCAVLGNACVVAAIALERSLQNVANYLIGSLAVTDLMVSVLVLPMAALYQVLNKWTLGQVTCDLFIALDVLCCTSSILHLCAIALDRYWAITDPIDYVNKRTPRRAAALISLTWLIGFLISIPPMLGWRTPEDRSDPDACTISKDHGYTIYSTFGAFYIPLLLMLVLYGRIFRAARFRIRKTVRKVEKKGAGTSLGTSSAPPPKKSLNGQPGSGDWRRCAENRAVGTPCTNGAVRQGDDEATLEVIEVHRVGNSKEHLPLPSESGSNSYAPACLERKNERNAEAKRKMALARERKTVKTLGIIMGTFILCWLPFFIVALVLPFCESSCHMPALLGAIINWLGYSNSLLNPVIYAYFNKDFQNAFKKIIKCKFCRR

[3] = DRUGMATRIX: GABAA, Muscimol, Central radioligand binding (ligand: [3H] Muscimol); type: cell membranes, Rattus norvegicus, Wistar, Brain, Membrane; settings: Not Active = under 50% inhibition at 10 µM
[4] = molecular target: Mitogen-activated protein kinase 3 (Homo sapiens, UniProt P27361); test: DRUGMATRIX: Protein Serine/Threonine Kinase, ERK1 enzyme inhibition (substrate: Myelin Basic Protein); set-up: species or system Escherichia coli; settings: Not Active = under 50% inhibition at 10 µM
Mitogen-activated protein kinase 3, sequence (P27361 whole entry): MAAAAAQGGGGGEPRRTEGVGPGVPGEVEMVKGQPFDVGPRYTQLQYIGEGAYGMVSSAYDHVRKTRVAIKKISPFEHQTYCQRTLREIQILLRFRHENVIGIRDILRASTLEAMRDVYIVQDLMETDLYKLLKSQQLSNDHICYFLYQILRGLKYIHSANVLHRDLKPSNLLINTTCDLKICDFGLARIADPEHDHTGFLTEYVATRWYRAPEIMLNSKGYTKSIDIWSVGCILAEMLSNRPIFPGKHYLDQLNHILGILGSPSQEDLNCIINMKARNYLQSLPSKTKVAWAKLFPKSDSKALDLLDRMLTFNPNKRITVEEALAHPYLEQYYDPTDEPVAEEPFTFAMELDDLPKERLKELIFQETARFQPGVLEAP

[5] = molecular target: T3, Angiotensin-converting enzyme (Oryctolagus cuniculus, UniProt P12822); type: tissue-based, Lung;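 also: enzymatic inhibition of angiotensin-converting enzyme measured with FAPGG as the substrate; in other assays of this panel Not Active means under 50% inhibition at 10 µM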
T3 sequence (P12822 whole entry): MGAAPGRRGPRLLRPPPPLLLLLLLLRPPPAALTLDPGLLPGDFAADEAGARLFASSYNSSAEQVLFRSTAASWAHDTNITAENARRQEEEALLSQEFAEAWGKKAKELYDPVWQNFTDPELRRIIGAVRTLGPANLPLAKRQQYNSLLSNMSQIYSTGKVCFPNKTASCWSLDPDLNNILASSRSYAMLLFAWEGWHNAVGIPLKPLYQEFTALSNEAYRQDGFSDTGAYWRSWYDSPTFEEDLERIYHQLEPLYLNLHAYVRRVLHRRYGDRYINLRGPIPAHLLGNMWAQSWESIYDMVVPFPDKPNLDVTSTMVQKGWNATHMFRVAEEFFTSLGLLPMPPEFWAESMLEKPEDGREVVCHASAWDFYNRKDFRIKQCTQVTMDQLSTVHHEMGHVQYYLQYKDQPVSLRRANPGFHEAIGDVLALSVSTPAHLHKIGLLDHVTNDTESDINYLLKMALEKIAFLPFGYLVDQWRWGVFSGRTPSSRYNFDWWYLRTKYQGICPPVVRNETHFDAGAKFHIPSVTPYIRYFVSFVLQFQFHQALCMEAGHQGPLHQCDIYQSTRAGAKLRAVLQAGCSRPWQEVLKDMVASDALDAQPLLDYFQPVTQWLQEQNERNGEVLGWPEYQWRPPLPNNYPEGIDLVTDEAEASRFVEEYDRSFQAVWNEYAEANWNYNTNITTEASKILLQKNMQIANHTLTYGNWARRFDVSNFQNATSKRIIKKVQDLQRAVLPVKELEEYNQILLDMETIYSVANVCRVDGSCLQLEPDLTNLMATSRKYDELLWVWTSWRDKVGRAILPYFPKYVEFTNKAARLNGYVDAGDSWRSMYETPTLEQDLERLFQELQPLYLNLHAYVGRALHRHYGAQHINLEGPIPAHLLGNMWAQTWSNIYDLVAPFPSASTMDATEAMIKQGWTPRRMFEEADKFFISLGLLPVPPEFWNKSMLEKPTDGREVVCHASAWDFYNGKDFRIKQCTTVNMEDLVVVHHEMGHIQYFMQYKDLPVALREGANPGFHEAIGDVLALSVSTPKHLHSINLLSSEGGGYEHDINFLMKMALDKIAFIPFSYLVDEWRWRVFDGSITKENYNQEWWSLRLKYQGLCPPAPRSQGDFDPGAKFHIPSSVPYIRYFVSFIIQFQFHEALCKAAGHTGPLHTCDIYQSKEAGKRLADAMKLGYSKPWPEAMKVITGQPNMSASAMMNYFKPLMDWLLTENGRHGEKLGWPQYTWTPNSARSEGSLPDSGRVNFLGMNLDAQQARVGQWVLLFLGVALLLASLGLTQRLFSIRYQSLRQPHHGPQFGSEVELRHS

[6] = molecular target: Insulin receptor (Rattus norvegicus, UniProt P15127); type: cell membranes, Wistar, Liver, Membrane; also: in other assays of this panel Not Active means under 50% inhibition at 10 µM
Insulin receptor, sequence (P15127 27-759 limits assumed): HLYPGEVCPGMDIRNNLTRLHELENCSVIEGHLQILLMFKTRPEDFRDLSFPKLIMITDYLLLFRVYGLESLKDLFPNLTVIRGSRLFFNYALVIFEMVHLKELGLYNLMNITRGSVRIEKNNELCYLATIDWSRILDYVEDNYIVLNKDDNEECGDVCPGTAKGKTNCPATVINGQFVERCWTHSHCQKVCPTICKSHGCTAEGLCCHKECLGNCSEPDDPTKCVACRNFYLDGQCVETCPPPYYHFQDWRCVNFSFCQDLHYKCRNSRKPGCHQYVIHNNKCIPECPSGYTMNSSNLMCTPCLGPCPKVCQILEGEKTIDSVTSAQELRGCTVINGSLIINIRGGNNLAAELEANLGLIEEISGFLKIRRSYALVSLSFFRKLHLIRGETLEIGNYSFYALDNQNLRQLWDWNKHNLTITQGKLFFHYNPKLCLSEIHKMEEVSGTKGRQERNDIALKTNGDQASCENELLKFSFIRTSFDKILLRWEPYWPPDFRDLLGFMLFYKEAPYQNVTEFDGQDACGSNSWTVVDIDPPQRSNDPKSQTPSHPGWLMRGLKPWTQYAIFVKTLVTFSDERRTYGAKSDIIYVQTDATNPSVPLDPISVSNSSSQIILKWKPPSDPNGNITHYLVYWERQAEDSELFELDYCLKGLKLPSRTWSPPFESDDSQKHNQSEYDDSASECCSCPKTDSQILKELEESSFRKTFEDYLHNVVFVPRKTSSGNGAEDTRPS
Insulin receptor, sequence (P15127 764-1383 limits assumed): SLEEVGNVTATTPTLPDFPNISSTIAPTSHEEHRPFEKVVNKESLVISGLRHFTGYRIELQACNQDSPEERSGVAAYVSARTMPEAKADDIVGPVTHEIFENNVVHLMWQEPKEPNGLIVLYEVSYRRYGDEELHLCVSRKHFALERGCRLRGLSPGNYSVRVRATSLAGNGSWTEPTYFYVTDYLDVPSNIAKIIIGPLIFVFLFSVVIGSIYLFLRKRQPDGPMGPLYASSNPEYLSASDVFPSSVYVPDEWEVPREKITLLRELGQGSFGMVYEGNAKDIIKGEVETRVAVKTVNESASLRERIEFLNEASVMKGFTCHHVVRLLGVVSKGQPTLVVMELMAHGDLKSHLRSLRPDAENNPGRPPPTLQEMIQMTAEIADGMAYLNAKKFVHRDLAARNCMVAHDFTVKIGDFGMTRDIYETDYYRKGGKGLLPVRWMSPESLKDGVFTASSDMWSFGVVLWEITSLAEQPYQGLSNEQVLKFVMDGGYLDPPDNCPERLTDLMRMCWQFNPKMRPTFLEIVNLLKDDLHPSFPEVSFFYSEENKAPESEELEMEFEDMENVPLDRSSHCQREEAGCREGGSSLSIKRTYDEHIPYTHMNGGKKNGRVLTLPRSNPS

[7] = molecular target: 5-hydroxytryptamine receptor 1B (Rattus norvegicus, UniProt P28564); type: cell membranes, Wistar, Cerebral cortex, Membrane; also: in other assays of this panel Not Active means under 50% inhibition at 10 µM
5-hydroxytryptamine receptor 1B, sequence (P28564 whole entry): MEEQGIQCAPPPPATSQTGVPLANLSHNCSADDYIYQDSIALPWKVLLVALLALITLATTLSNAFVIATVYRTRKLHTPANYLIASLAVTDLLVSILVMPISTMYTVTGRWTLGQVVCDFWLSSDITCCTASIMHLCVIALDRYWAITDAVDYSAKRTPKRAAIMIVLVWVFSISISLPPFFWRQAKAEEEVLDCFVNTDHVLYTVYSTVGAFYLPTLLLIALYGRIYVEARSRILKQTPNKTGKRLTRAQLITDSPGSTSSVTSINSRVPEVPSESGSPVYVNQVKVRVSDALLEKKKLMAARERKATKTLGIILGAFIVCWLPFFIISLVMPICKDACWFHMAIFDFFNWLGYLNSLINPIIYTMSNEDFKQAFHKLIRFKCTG

[8] = molecular target: T4, Neuropeptide Y receptor type 1 (Homo sapiens, UniProt P25929); type: cell membranes, Membrane; settings: sk-n-mc; also: in other assays of this panel Not Active means under 50% inhibition at 10 µM
T4 sequence (P25929 whole entry): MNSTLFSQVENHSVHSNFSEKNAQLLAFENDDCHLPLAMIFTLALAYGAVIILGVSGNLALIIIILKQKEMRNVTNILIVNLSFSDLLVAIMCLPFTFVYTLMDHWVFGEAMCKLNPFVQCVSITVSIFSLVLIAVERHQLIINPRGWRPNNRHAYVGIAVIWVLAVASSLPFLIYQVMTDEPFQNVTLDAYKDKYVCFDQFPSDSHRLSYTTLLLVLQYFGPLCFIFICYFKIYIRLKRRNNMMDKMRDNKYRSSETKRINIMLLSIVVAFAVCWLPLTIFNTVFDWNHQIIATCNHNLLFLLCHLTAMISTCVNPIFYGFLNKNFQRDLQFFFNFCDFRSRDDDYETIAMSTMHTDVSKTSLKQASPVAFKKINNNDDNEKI

LEAD (II) ACETATE
Not Active: IC50 [1] | Ki [1] | IC50 [2] | Ki [2] | IC50 [3] | Ki [3] | IC50 [4] | Ki [4] | IC50 [5] | Ki [5] | IC50 [6] | Ki [6] | IC50 [7] | Ki [7] | IC50 [8] | Ki [8]

LIPOPOLYSACCHARIDE E. COLI O55:B5
Not Active: IC50 [1] | Ki [1] | IC50 [2] | Ki [2] | IC50 [3] | Ki [3] | IC50 [4] | Ki [4] | IC50 [5] | Ki [5] | IC50 [6] | Ki [6] | IC50 [7] | Ki [7] | IC50 [8] | Ki [8]
